ChEMBL document CHEMBL1129896, “New non peptidic C5a receptor antagonists” (Bioorg Med Chem Lett, 1997)

Target: T1, C5a anaphylatoxin chemotactic receptor 1 (Homo sapiens) (UniProt P21730)
T1 sequence (whole entry): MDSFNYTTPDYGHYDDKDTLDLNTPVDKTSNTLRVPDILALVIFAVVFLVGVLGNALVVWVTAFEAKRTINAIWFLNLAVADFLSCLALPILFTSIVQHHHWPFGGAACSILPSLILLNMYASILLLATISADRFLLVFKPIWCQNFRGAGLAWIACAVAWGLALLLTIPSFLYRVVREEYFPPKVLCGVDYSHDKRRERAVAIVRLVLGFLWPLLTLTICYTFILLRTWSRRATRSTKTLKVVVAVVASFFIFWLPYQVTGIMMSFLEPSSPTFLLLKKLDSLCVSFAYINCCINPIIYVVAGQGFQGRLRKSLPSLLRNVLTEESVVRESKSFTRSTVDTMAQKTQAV
Test: Tested in vitro for the inhibition against C5a anaphylatoxin chemotactic receptor assayed on human monocyte cell line U937 at 30 uM
Assay type: cell-based
Conditions: U-937

| SMILES | inhibition |
| --- | --- |
| CNC(=N)Nc1ccc(OC)c(OCc2ccccc2)c1 | 20% |
| CC/N=C(\N)Nc1ccc(OCc2ccccc2)c(OCc2ccccc2)c1 | 40% |
| C/N=C(/N)Nc1ccc(Oc2ccccc2)c(OCc2ccccc2)c1 | 32% |
| C/N=C(/N)Nc1ccc(OCc2ccccc2)c(-c2ccc(F)cc2)c1 | 20% |

Target: T2, C5a anaphylatoxin chemotactic receptor 1 (Homo sapiens, UniProt P21730)
T2 sequence (P21730 whole entry): T1 sequence (whole entry)
Test: Compound was evaluated for the antagonistic activity against C5a anaphylatoxin chemotactic receptor in human neutrophil C5a stimulated respiratory burst assay
Assay type: functional
Conditions: not given

| SMILES | IC50 |
| --- | --- |
| CNC(N)=Nc1ccc(OCCc2ccccc2)c(-c2ccccc2)c1 | 0.8 µM |

Target: T1, C5a anaphylatoxin chemotactic receptor 1 (Homo sapiens)
Test: Tested in vitro for the inhibition against C5a anaphylatoxin chemotactic receptor assayed on human monocyte cell line U937; Inactive at 30 uM
Assay type: cell-based
Conditions: U-937

| SMILES | inhibition |
| --- | --- |
| CNC(=N)Nc1ccc(OCc2ccccc2)c(-c2ccccc2OC)c1 | < 20% |
| CNC(=N)Cc1ccc(OCc2ccccc2)c(OCc2ccccc2)c1 | < 20% |
| NCc1ccc(OCc2ccccc2)c(OCc2ccccc2)c1 | < 20% |
| C/N=C(/N)c1ccc(OCc2ccccc2)c(OCc2ccccc2)c1 | < 20% |
| Nc1ccc(OCc2ccccc2)c(OCc2ccccc2)c1 | < 20% |
| CC(=N)Nc1ccc(OCc2ccccc2)c(OCc2ccccc2)c1 | < 20% |
| C/N=C(/N)Nc1ccc(OCc2ccccc2)c(OCCc2ccccc2)c1 | < 20% |
| N=C(N)NCc1ccc(OCc2ccccc2)c(OCc2ccccc2)c1 | < 20% |

Target: T2, C5a anaphylatoxin chemotactic receptor 1
Test: Binding affinity against C5a anaphylatoxin chemotactic receptor assayed on human monocyte cell line U937
Assay type: cell-based, U-937
Conditions: not given

| SMILES | IC50 |
| --- | --- |
| C/N=C(/N)Nc1ccc(OCc2ccccc2)c(-c2cccc(F)c2)c1 | 8 µM |
| C/N=C(\N)Nc1ccc(OCc2ccccc2)c(OCc2ccccc2)c1 | 30 µM |
| CNC(N)=Nc1ccc(OCCCc2ccccc2)c(-c2ccccc2)c1 | 1 µM |
| CNC(N)=Nc1ccc(OCC2CCCCC2)c(-c2ccccc2)c1 | 3 µM |
| CNC(N)=Nc1ccc(OCc2ccccc2)c(-c2ccc(OC)cc2)c1 | 54 µM |
| CNC(=N)Nc1ccc(OCc2ccccc2)c(-c2cccc(OC)c2)c1 | 9 µM |
| CNC(N)=Nc1ccc(OCCc2ccccc2)c(OCc2ccccc2)c1 | 7.5 µM |
| CNC(N)=Nc1ccc(OCc2ccccc2)c(-c2ccccc2)c1 | 2 µM |
| C/N=C(/N)Nc1ccc(OCc2ccccc2)c(-c2cccs2)c1 | 9 µM |
| CNC(N)=Nc1ccc(OCCCCc2ccccc2)c(OCc2ccccc2)c1 | 4 µM |
| CCCCOc1ccc(NC(=N)NC)cc1OCc1ccccc1 | 30 µM |
| C/N=C(/N)Nc1ccc(OCCC2CCCCC2)c(-c2ccccc2)c1 | 1 µM |
| C/N=C(/N)Nc1ccc(OCC2CCCCC2)c(OCc2ccccc2)c1 | 8 µM |
| CNC(N)=Nc1ccc(OCCCc2ccccc2)c(OCc2ccccc2)c1 | 6 µM |
| C/N=C(/N)Nc1ccc(OCc2ccccc2)c(Oc2ccccc2)c1 | 4 µM |
| N=C(N)Nc1ccc(OCc2ccccc2)c(OCc2ccccc2)c1 | > 100 µM |
| C/N=C(/N)Nc1ccc(OCc2ccccc2)c(-c2cccc3ccccc23)c1 | 4.5 µM |
| CNC(N)=Nc1ccc(OCc2ccccc2)c(-c2ccc(Cl)cc2)c1 | 50 µM |
| CNC(N)=Nc1ccc(OCc2ccccc2)c(OC2CCCC2)c1 | 25 µM |
| CNC(N)=Nc1ccc(OCCC2CCCCC2)c(OCc2ccccc2)c1 | 9 µM |
